Measurements: patent US10456400B2, “Aza-ellipticine analogs, methods of synthesis and methods of treatment” (MUSC FOUNDATION FOR RESEARCH DEVELOPMENT, priority 2014, dated 2019)
Read-outs that look alike come from different tables or passages of the source.

Legend:
[1] = test system: Human mammary cancer MCF-7 cells; assay: Cytotoxicity in MCF-7 cells (72 h treatment, Hoechst 33342 staining, IN Cell Analyzer imaging); type: cell-based
Experimental: (§1) Human mammary cancer MCF-7 cells were maintained under standard conditions using Dulbecco's Modified Eagle Medium Nutrient Mixture F12 (DMEM-F12, GIBCO #12400-024) accompanied by 10% fetal calf serum (FCS, Atlanta Biologicals #S 11550). Cells were cultured to 80% confluency before being lifted with 0.05% Trypsin/EDTA (GIBCO #1404912) for 2 minutes, spun and resuspended in new media.
(§2) MCF7 cells were seeded at a density of 10,000 cells per well in 96 well plates (BD Falcon #353220). Cells were grown for 24 h, washed in phosphate-buffered saline (PBS, Life Technologies #14080-055), media was then replaced with DMEM-F12 at 5% FCS. At this time Ellipticine, including Aza-Ellipticine compounds, were added from a treatment plate (3 μL per condition) for a total volume of 150 μL (final concentrations of 0.1, 1, 3, 10 μM) and were incubated under standard conditions for an additional 72 h.
(§3) After 72 h of treatment with drugs, cells were fixed by adding 50 μL of 10% Buffered Formalin Phosphate and stained with 2 μM Hoechst 33342 (AnaSpec #83218) stock (20000×) to media for 1 h. Images were then captured with the IN Cell Analyzer 2000 (GE Healthcare UK Ltd., Buckinghamshire, UK).

[2] = as above; type: cell-based, Human; conditions: human
Experimental: as §1, §2, §3

[3] = Ramkumar and Nagarajan, 2014; cited from earlier work

Row | Compound | EC50 at 72 h [2] | other results
1 | COc1cccc2c1[nH]c1nc3cccnc3cc12 [Example 15, 7-methoxy-6H-indolo[2,3-b][1,5]naphthyridine] | – | Cytotoxicity, EC50 (result in words) [1]: No effect
2 | c1ccc2c(c1)[nH]c1nc3cnccc3cc12 [Example 2, 10H-indolo[2,3-b][1,7]naphthyridine] | 6000 nM | –
3 | Oc1ccc2[nH]c3nc4cccnc4cc3c2c1 [Example 14, 6H-indolo[2,3-b][1,5]naphthyridin-9-ol] | 5000 nM | –
4 | COc1ccc2[nH]c3nc4cccnc4cc3c2c1 [Example 12, 9-methoxy-6H-indolo[2,3-b][1,5]naphthyridine] | 800 nM | –
5 | CC(=O)Oc1ccc2c(c1)c1cc3ncccc3nc1n2C(C)=O [Example 19, 6-acetyl-6H-indolo[2,3-b][1,5]naphthyridin-9-yl acetate] | 1000 nM | –
6 | CCCCc1c2ncccc2nc2[nH]c3ccc(OC)cc3c12 [Example 18, 11-butyl-9-methoxy-6H-indolo[2,3-b][1,5]naphthyridine] | 1000 nM | –
7 | COc1ccc2[nH]c3nc4cnccc4cc3c2c1 [Example 13, 7-methoxy-10H-indolo[2,3-b][1,7]naphthyridine] | 17000 nM | –
8 | Cc1ccc2[nH]c3nc4cccnc4cc3c2c1 [Example 17, 9-methyl-6H-indolo[2,3-b][1,5]naphthyridine] | 900 nM | –
9 | Cc1c2ccncc2c(C)c2c1[nH]c1ccc(O)cc12 [9-Hydroxy ellipticine, reference compound] | – | EC50 ([1]; MCF-7 cells, 72 h treatment, 5% FCS, concentrations 0.1, 1, 3, 10 μM): 900 nM; potency compared with parent ellipticine [3]: forty times more potent than its parent
10 | Cc1c2ccncc2c(C)c2c1[nH]c1ccccc12 [ellipticine] | – | EC50 at 72 h ([2]; MCF-7 cells, 72 h treatment, 5% FCS, concentrations 0.1, 1, 3, 10 μM, read-out: Cytotoxicity, EC50): 1000 nM
11 | CCCn1c2ccc(OC)cc2c2cc3ncccc3nc21 [Example 8, 9-methoxy-6-propyl-6H-indolo[2,3-b][1,5]naphthyridine] | 13300 nM | –
12 | COc1ccc2[nH]c3nc4cccnc4c(C)c3c2c1 [Example 7, 9-methoxy-11-methyl-6H-indolo[2,3-b][1,5]naphthyridine] | 14000 nM | –
